Laboratory results published in ChEMBL document CHEMBL2413072, “Synthesis and in vitro anticancer studies of novel C-2 arylidene congeners of lantadenes” (2013).

Tests used:
Format in all cases: functional
[1] = system: RPMI-8226; assay: Growth inhibition of human RPMI8226 cells by sulforhodamine B assay
[2] = system: CCRF-CEM; assay: Growth inhibition of human CCRF-CEM cells by sulforhodamine B assay
[3] = system: OVCAR-3; assay: Growth inhibition of human OVCAR3 cells assessed as cell growth at 10^-8 M by sulforhodamine B assay; settings: read-out: Activity
[4] = system: NCI-H460; assay: Growth inhibition of human NCI-H460 cells assessed as cell growth at 10^-8 M by sulforhodamine B assay; settings: read-out: Activity
[5] = system: T47D; assay: Growth inhibition of human T47D cells by sulforhodamine B assay
[6] = Growth inhibition of human Hs 578T cells by sulforhodamine B assay
[7] = system: MDA-MB-231; assay: Growth inhibition of human MDA-MB-231 cells by sulforhodamine B assay
[8] = system: UO-31; assay: Growth inhibition of human UO31 cells by sulforhodamine B assay
[9] = system: CAKI-1; assay: Growth inhibition of human CAKI-1 cells by sulforhodamine B assay
[10] = system: T47D; assay: Growth inhibition of human T47D cells assessed as cell growth at 10^-4 M by sulforhodamine B assay; settings: read-out: Activity
[11] = system: OVCAR-3; assay: Growth inhibition of human OVCAR3 cells assessed as cell growth at 10^-4 M by sulforhodamine B assay; settings: read-out: Activity
[12] = system: UACC-257; assay: Growth inhibition of human UACC257 cells assessed as cell growth at 10^-4 M by sulforhodamine B assay; settings: read-out: Activity
[13] = system: SK-MEL-5; assay: Growth inhibition of human SK-MEL-5 cells assessed as cell growth at 10^-4 M by sulforhodamine B assay; settings: read-out: Activity
[14] = system: SK-MEL-28; assay: Growth inhibition of human SK-MEL-28 cells assessed as cell growth at 10^-4 M by sulforhodamine B assay; settings: read-out: Activity
[15] = system: COLO 205; assay: Growth inhibition of human COLO205 cells assessed as cell growth at 10^-4 M by sulforhodamine B assay; settings: read-out: Activity
[16] = system: NCI-H460; assay: Growth inhibition of human NCI-H460 cells assessed as cell growth at 10^-4 M by sulforhodamine B assay; settings: read-out: Activity
[17] = system: NCI-H23; assay: Growth inhibition of human NCI-H23 cells assessed as cell growth at 10^-4 M by sulforhodamine B assay; settings: read-out: Activity
[18] = system: MOLT-4; assay: Growth inhibition of human MOLT4 cells assessed as cell growth at 10^-4 M by sulforhodamine B assay; settings: read-out: Activity
[19] = system: HL-60(TB); assay: Growth inhibition of human HL-60(TB) cells assessed as cell growth at 10^-4 M by sulforhodamine B assay; settings: read-out: Activity
[20] = system: CAKI-1; assay: Growth inhibition of human CAKI-1 cells assessed as cell growth at 10^-6 M by sulforhodamine B assay; settings: read-out: Activity
[21] = Growth inhibition of human NCI-ADR-RES cells assessed as cell growth at 10^-6 M by sulforhodamine B assay; settings: read-out: Activity
[22] = system: OVCAR-3; assay: Growth inhibition of human OVCAR3 cells assessed as cell growth at 10^-6 M by sulforhodamine B assay; settings: read-out: Activity
[23] = system: MDA-MB-435; assay: Growth inhibition of human MDA-MB-435 cells assessed as cell growth at 10^-6 M by sulforhodamine B assay; settings: read-out: Activity
[24] = system: Malme-3M; assay: Growth inhibition of human MALME-3M cells assessed as cell growth at 10^-6 M by sulforhodamine B assay; settings: read-out: Activity
[25] = system: U-251; assay: Growth inhibition of human U251 cells assessed as cell growth at 10^-6 M by sulforhodamine B assay; settings: read-out: Activity
[26] = system: NCI-H460; assay: Growth inhibition of human NCI-H460 cells assessed as cell growth at 10^-6 M by sulforhodamine B assay; settings: read-out: Activity
[27] = system: NCI-H522; assay: Growth inhibition of human NCI-H522 cells assessed as cell growth at 10^-6 M by sulforhodamine B assay; settings: read-out: Activity
[28] = system: RPMI-8226; assay: Growth inhibition of human RPMI8226 cells assessed as cell growth at 10^-6 M by sulforhodamine B assay; settings: read-out: Activity
[29] = system: CCRF-CEM; assay: Growth inhibition of human CCRF-CEM cells assessed as cell growth at 10^-6 M by sulforhodamine B assay; settings: read-out: Activity
[30] = Growth inhibition of human Hs 578T cells assessed as cell growth at 10^-7 M by sulforhodamine B assay; settings: read-out: Activity
[31] = system: OVCAR-4; assay: Growth inhibition of human OVCAR4 cells assessed as cell growth at 10^-7 M by sulforhodamine B assay; settings: read-out: Activity
[32] = system: OVCAR-3; assay: Growth inhibition of human OVCAR3 cells assessed as cell growth at 10^-7 M by sulforhodamine B assay; settings: read-out: Activity
[33] = system: SK-MEL-2; assay: Growth inhibition of human SK-MEL-2 cells assessed as cell growth at 10^-7 M by sulforhodamine B assay; settings: read-out: Activity
[34] = system: SNB-75; assay: Growth inhibition of human SNB75 cells assessed as cell growth at 10^-7 M by sulforhodamine B assay; settings: read-out: Activity
[35] = system: SF-539; assay: Growth inhibition of human SF539 cells assessed as cell growth at 10^-7 M by sulforhodamine B assay; settings: read-out: Activity
[36] = system: HOP-92; assay: Growth inhibition of human HOP92 cells assessed as cell growth at 10^-7 M by sulforhodamine B assay; settings: read-out: Activity
[37] = system: NCI-H226; assay: Growth inhibition of human NCI-H226 cells assessed as cell growth at 10^-7 M by sulforhodamine B assay; settings: read-out: Activity
[38] = system: RPMI-8226; assay: Growth inhibition of human RPMI8226 cells assessed as cell growth at 10^-7 M by sulforhodamine B assay; settings: read-out: Activity
[39] = system: CCRF-CEM; assay: Growth inhibition of human CCRF-CEM cells assessed as cell growth at 10^-7 M by sulforhodamine B assay; settings: read-out: Activity
[40] = system: RXF 393; assay: Growth inhibition of human RXF393 cells assessed as cell growth at 10^-8 M by sulforhodamine B assay; settings: read-out: Activity
[41] = read-out: LC50 (the source's name)
[42] = read-out: pLC50 (the source's name) (converted)

## C/C=C(/C)C(=O)O[C@@H]1CC(C)(C)C[C@H]2C3=CC[C@@H]4[C@@]5(C)CCC(=O)C(C)(C)[C@@H]5CC[C@@]4(C)[C@]3(C)CC[C@@]12C(=O)O [LANTADENE A]
[1]; read-out: GI50
  GI50: 2 µM
[1]; [41]
  CC50: > 100 µM
[1]; read-out: TGI
  TGI: > 100 µM
[1]; read-out: pGI50 (converted)
  GI50: 2 µM
[1]; [42]
  CC50: > 100 µM
[1]; read-out: pTGI (converted)
  TGI: > 100 µM
[2]; read-out: GI50
  GI50: 3.48 µM
[2]; [41]
  CC50: > 100 µM
[2]; read-out: TGI
  TGI: > 100 µM
[2]; read-out: pGI50 (converted)
  GI50: 3.47 µM
[2]; [42]
  CC50: > 100 µM
[2]; read-out: pTGI (converted)
  TGI: > 100 µM
[3]
  growth at 0.01 µM: 109%
[4]
  growth at 0.01 µM: 104%
[5]; read-out: GI50
  GI50: 6.15 µM
[5]; [41]
  CC50: > 100 µM
[5]; read-out: TGI
  TGI: > 100 µM
[5]; read-out: pGI50 (converted)
  GI50: 6.17 µM
[5]; [42]
  CC50: > 100 µM
[5]; read-out: pTGI (converted)
  TGI: > 100 µM
[6]; read-out: GI50
  GI50: 5.1 µM
[6]; [41]
  CC50: > 100 µM
[6]; read-out: TGI
  TGI: > 100 µM
[6]; read-out: pGI50 (converted)
  GI50: 5.13 µM
[6]; [42]
  CC50: > 100 µM
[6]; read-out: pTGI (converted)
  TGI: > 100 µM
[7]; read-out: GI50
  GI50: 4.53 µM
[7]; [41]
  CC50: > 100 µM
[7]; read-out: TGI
  TGI: 33.4 µM
[7]; read-out: pGI50 (converted)
  GI50: 4.57 µM
[7]; [42]
  CC50: > 100 µM
[7]; read-out: pTGI (converted)
  TGI: 33.1 µM
[8]; read-out: GI50
  GI50: 3.44 µM
[8]; [41]
  CC50: > 100 µM
[8]; read-out: TGI
  TGI: > 100 µM
[8]; read-out: pGI50 (converted)
  GI50: 3.47 µM
[8]; [42]
  CC50: > 100 µM
[8]; read-out: pTGI (converted)
  TGI: > 100 µM
[9]; read-out: GI50
  GI50: 3.93 µM
[9]; [41]
  CC50: > 100 µM
[9]; read-out: TGI
  TGI: > 100 µM
[9]; read-out: pGI50 (converted)
  GI50: 3.89 µM
[9]; [42]
  CC50: > 100 µM
[9]; read-out: pTGI (converted)
  TGI: > 100 µM
[10]
  growth at 100 µM: 23%
[11]
  growth at 100 µM: 23%
[12]
  growth at 100 µM: 21%
[13]
  growth at 100 µM: -46%
[14]
  growth at 100 µM: 42%
[15]
  growth at 100 µM: -51%
[16]
  growth at 100 µM: 8%
[17]
  growth at 100 µM: 12%
[18]
  growth at 100 µM: 2%
[19]
  growth at 100 µM: -38%
[20]
  growth at 1 µM: 88%
[21]
  growth at 1 µM: 97%
[22]
  growth at 1 µM: 105%
[23]
  growth at 1 µM: 90%
[24]
  growth at 1 µM: 91%
[25]
  growth at 1 µM: 90%
[26]
  growth at 1 µM: 92%
[27]
  growth at 1 µM: 94%
[28]
  growth at 1 µM: 64%
[29]
  growth at 1 µM: 92%
[30]
  growth at 0.1 µM: 93%
[31]
  growth at 0.1 µM: 95%
[32]
  growth at 0.1 µM: 109%
[33]
  growth at 0.1 µM: 115%
[34]
  growth at 0.1 µM: 89%
[35]
  growth at 0.1 µM: 103%
[36]
  growth at 0.1 µM: 71%
[37]
  growth at 0.1 µM: 81%
[38]
  growth at 0.1 µM: 91%
[39]
  growth at 0.1 µM: 97%
[40]
  growth at 0.01 µM: 95%
